Measured values as given in paper PMC11768104, “Identification of Two Flavonoids as New and Safe Inhibitors of Kynurenine Aminotransferase II via Computational and In Vitro Study” (Pharmaceuticals, 2025).
Read-outs that look alike come from different tables or passages of the source.

Assays:
[1] = target: T1, recombinant human KAT-II (kynurenine aminotransferase II) (Homo sapiens, UniProt Q8N5Z0); assay: Lineweaver-Burk analysis, same fluorescent assay; assay type: biochemical
T1 construct: gene AADAT; recombinant, purchased from R&D Systems (Bio-Techne)
Experimental: Lineweaver-Burk analysis, same fluorescent assay on recombinant human KAT-II (kynurenine aminotransferase II) | competitive inhibition constant (Ki) for herbacetin and (-)-Epicatechin was calculated

[2] = target: T1, recombinant human KAT-II (kynurenine aminotransferase II); assay: microplate fluorescent kynurenine aminotransferase assay coupled to glutamate dehydrogenase; assay type: biochemical

T1 sequence (Q8N5Z0 30-425): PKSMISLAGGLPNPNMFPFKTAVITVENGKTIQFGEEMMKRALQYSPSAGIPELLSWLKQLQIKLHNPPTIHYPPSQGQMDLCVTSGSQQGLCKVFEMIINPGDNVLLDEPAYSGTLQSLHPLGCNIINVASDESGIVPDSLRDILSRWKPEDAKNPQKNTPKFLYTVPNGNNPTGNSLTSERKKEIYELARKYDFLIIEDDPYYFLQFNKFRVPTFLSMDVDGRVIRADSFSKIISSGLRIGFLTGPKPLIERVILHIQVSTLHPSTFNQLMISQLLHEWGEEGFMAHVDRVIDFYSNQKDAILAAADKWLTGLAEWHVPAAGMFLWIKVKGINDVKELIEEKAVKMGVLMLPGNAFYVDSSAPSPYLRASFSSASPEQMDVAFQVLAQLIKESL

## Oc1cc(O)c2c(c1)O[C@H](c1ccc(O)c(O)c1)[C@H](O)C2 [(-)-Epicatechin]
[1]
  Ki: 9.23 ± 0.39 µM
[2]
  IC50: 8.76 ± 0.76 µM

## N[C@H]1Cc2ccccc2N(O)C1=O [PF-04859989, reference compound]
[2]; 1 mM L-KYN, 50 µM α-ketoglutaric acid, 5 µM PLP, pH 7.5, 30 min pre-incubation at room temperature, irreversible (binds PLP), covalent, non-competitive, error printed as 1.83
  IC50: 0.0279 ± 0.00181 µM

## O=c1c(O)c(-c2ccc(O)cc2)oc2c(O)c(O)cc(O)c12 [herbacetin]
[1]
  Ki: 7.64 ± 0.46 µM
[2]
  IC50: 5.98 ± 0.18 µM
